Experimental data reported in paper PMC11215778 (Journal of Medicinal Chemistry, 2024).
Read-outs that look alike come from different tables or passages of the source.

Tests used:
[1] = Cytotoxicity assay (CellTiter-Glo) on normal human dermal fibroblasts; type: cell-based; conditions: normal human dermal fibroblasts (NHDF)
Method: The cytotoxicity of the compounds was evaluated in nontumor normal human dermal fibroblasts (NHDF) purchased from ATCC (PCS-201-012, Manassas, VA, USA). The cells were negatively tested for the presence of mycoplasma (cat. #: LT07-318 MycoAlert Mycoplasma Detection kit, Lonza). The cells were cultivated in DMEM high glucose 4.5 g/L medium (cat. #: R8758, Merck, Germany). The medium was supplemented with 10% fetal bovine serum (cat. #: F7524, Merck, Germany; inactivated at 56 °C for 30 min) and 1.0% of L-glutamine (cat. #: G7513, Merck, Germany) without antibiotics. Cells were seeded in 384-well format white micro plates (cat. #: 164610, Nunc, Thermo Fisher Scientific, USA) at a concentration of 60,000 cells per mL and left to rest overnight. Next day, 1 and 10 μM concentrations of the tested compounds were added in triplicates. The cells were cultivated at 37 °C and 5% CO2 for 72 h after which a luminescent cell viability assay (CellTiter-Glo 2.0, cat. #: Promega, Madison, USA) was added. The plate was left on a shaker (350 rpm) in the dark for 20 min at RT. Luminescence was measured by a Spark multimode reader from Tecan (Tecan Group Ltd., Switzerland). The signal of the compound-treated cells was related to the value of the untreated control, which was arbitrarily set to 100% viability.

[2] = Plasma stability assay, human plasma; type: in vitro ADME; conditions: pooled plasma, read-out: Plasma stability % remaining at 6 h, hum
Method: […] The reactions were terminated by adding 4 vol of ice-cold methanol, and the samples were then mixed vigorously, frozen at −20 °C for 1 h, and left overnight at 8 °C. After that, the samples were centrifuged, and the supernatant was analyzed by means of LC–MS/MS Sciex 6500 triple quadrupole (Sciex, Framingham, MA, USA). Zero time points were prepared by adding ice-cold methanol to the compound prior to the addition of the plasma.

[3] = Plasma stability assay, rat plasma; type: in vitro ADME
[4] = Microsomal stability, human liver microsomes; type: in vitro ADME; conditions: pooled liver microsomes, pH 7.4, read-out: Microsomal stability CLint, hum
Method: (§1) . Zero time points were prepared by adding ice-cold methanol to a mixture of the compound with cofactors prior to the addition of microsomes. […]. Intrinsic clearance (CLint) was calculated using the following formula: [drawing 1] where V = incubation volume per milligram of microsomal protein (μL/mg) and t1/2 = microsomal half-life.

[5] = Microsomal stability, rat liver microsomes; type: in vitro ADME; conditions: pH 7.4
Method: as §1

[6] = in vitro; type: in vitro ADME; conditions: human, Caco-2; for Papp A→B at 3 h, 5 µM: read-out: Caco-2 permeability Papp A–B
Method: A Transwell system consisting of two compartments separated by a monolayer of differentiated Caco-2 cells was employed for the intestinal permeability evaluation. Thanks to the ability of Caco-2 cells to become polarized, bidirectional transport (A–B and B–A) could be measured and the efflux ratio calculated.
The transepithelial bidirectional transport of tested compounds (5 μM, pH 7.4/7.4) across the Caco-2 monolayers was studied using the BD BioCoat HTS Caco-2 assay system (BD Biosciences, Bedford, MA) as described in detail elsewhere.[47] Aliquots were collected from the donor and acceptor compartment at the end of the transport period (3 h), the integrity of monolayers was verified using Lucifer Yellow dye, and the compounds were quantified using LC–MS/MS (Triple Quad 6500+, Sciex). The apparent permeability coefficient (Papp) was calculated from the following equation: Papp = (dQ/dt)/C0 × A, where dQ/dt is the rate of absorption of the drug across the cells, C0 is the donor compartment concentration at time zero, and A is the area of the monolayer. The efflux ratio was expressed as (Papp B–A)/(Papp A–B). Recovery (%) was determined as (total compound mass in donor and receiver compartments at the end of the incubation/initial compound mass in the donor compartment) × 100.

[7] = target: D2 receptor; conditions: cited from earlier work
[8] = system: D3 receptor; conditions: cited from earlier work
[9] = target: T1, ADRA1A (Homo sapiens, UniProt P35348); conditions: read-out: ADRA1A IC50; antagonist activity, receptor stimulated with EC80 of epinephrine, Chem-1 cells
T1 sequence (P35348 1-466): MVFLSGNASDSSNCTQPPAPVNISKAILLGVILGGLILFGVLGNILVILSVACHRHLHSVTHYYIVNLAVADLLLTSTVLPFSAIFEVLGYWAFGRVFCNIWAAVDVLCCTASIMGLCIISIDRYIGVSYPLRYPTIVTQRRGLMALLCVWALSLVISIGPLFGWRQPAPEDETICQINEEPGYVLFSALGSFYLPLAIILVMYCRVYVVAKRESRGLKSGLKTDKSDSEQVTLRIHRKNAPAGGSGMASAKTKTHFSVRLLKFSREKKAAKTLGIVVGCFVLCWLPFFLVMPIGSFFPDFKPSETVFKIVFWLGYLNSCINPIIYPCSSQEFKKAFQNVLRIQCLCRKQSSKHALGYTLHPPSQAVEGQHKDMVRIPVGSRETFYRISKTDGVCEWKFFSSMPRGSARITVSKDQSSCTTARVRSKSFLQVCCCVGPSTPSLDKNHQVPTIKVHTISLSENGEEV
Method: All prepared compounds were tested for their antagonistic activity using calcium flux assays on cells overexpressing the ADRA2A or ADRA1A adrenergic receptor as a primary screen (Table 2).
Chem-1 cells overexpressing ADRA2A or 1A adrenergic receptors were purchased from Merck Millipore (cat. #: HTS096RTA and HTS087RTA; Merck, Germany). The cells were cultured according to the manual. […] After 30 min of incubation with the assay buffer at 37 °C and 5% CO2, the cells were incubated at RT in a dark place for another 15 min. […] All compounds were added by an Agilent Bravo Automated Liquid Handling Platform (Agilent Technologies, USA). […] Before each kinetic measurement, the background fluorescence (F0) was measured, and the result was calculated as (Fmax – F0)/F0.

[10] = 10 uM, read-out: NHDF viability at 10 uM (supplement csv)
[11] = 10 μM, untreated control = 100%, read-out: NHDF Viability 10 μM
[12] = human liver microsomes 0.5 mg/mL, 10 μM compound

SMILES | viability at 72 h, 1 µM [1] [%] | viability at 72 h, 10 µM [1, 10] [%] | viability at 72 h, 10 µM [1, 11] [%] | remaining at 6 h, 5 μM ([2]; human plasma, 5 μM, 37 °C) [%] | remaining at 6 h, 5 μM [3] [%] | microsomal CLint at 10 µM [4, 12] [µL/min/mg] | microsomal CLint at 10 µM ([5]; rat liver microsomes) [µL/min/mg] | Papp B→A at 3 h, 5 µM ([6]; 5 μM, pH 7.4/7.4, 3 h, read-out: Caco-2 permeability Papp B–A) [×10⁻⁶ cm/s] | D2 receptor pKi [7] | affinity toward the D3 receptor [8] | IC50 [9] [nM] | recovery at 3 h, 5 µM [6] [%] | Papp A→B at 3 h, 5 µM ([6]; 5 μM, pH 7.4/7.4, 3 h) [×10⁻⁶ cm/s] | remaining at 6 h, 5 μM ([2]; human) [%] | microsomal CLint at 10 µM ([4]; human) [µL/min/mg] | microsomal CLint at 10 µM ([5]; rat, liver microsomes) [µL/min/mg]
COC(=O)[C@@H]1[C@H]2C[C@H]3c4[nH]c5ccccc5c4CCN3C[C@@H]2CC[C@@H]1O [Compound 1, Yohimbine, reference compound] | 112 | 105 | 105 | 106 | 90 ± 2 | 7 ± 1 | 2 | 23 ± 8 | 6.4 | negligible |  |  |  |  |  | 
CCOC(=O)[C@@H]1[C@H]2C[C@H]3c4[nH]c5ccccc5c4CCN3C[C@@H]2CC[C@@H]1O [Compound 3a, 17-α-Hydroxyyohimban-16-α-carboxylic Acid Ethyl Ester] | 111 | 108 | 108 | 109 ± 1 | 52 | 14 | 3 |  |  |  | 3340 |  |  |  |  | 
CC(C)OC(=O)[C@@H]1[C@H]2C[C@H]3c4[nH]c5ccccc5c4CCN3C[C@@H]2CC[C@@H]1O [Compound 3b, 17-α-Hydroxyyohimban-16-α-carboxylic Acid Isopropyl Ester] | 108 | 102 | 102 | 102 | 89 | 17 ± 1 | 3 ± 1 |  |  |  | 4160 |  |  |  |  | 
CC(C)CCOC(=O)[C@@H]1[C@H]2C[C@H]3c4[nH]c5ccccc5c4CCN3C[C@@H]2CC[C@@H]1O [Compound 3c, 17-α-Hydroxyyohimban-16-α-carboxylic Acid (3-Methylbutyl-1-yl) Ester] | 117 | 114 | 114 |  |  |  |  |  |  |  | 2650 |  |  |  |  | 
O=C(OC1CCCC1)[C@@H]1[C@H]2C[C@H]3c4[nH]c5ccccc5c4CCN3C[C@@H]2CC[C@@H]1O [Compound 3d, 17-α-Hydroxyyohimban-16-α-carboxylic Acid Cyclopentyl Ester] | 113 | 113 | 117 |  |  |  |  |  |  |  | 2640 |  |  |  |  | 
CC(C)(C)OC(=O)[C@@H]1[C@H]2C[C@H]3c4[nH]c5ccccc5c4CCN3C[C@@H]2CC[C@@H]1O [Compound 3e, 17-α-Hydroxyyohimban-16-α-carboxylic Acid tert-Butyl Ester] | 123 | 117 | 113 |  |  |  |  |  |  |  | 10500 |  |  |  |  | 
O=C(O[C@@H]1CCNC1)[C@@H]1[C@H]2C[C@H]3c4[nH]c5ccccc5c4CCN3C[C@@H]2CC[C@@H]1O [Compound 4k, 17-α-Hydroxyyohimban-16-α-carboxylic Acid (R)-Pyrrolidin-3-yl Ester] | 99 | 91 | 91 | 95 ± 5 | 110 ± 3 | 3 ± 2 | 1 ± 1 |  |  |  |  | 101 | 1 |  |  | 
N[C@H]1C[C@@H](OC(=O)[C@@H]2[C@H]3C[C@H]4c5[nH]c6ccccc6c5CCN4C[C@@H]3CC[C@@H]2O)C1 [Compound 4o, 17-α-Hydroxyyohimban-16-α-carboxylic Acid cis-3-Aminocyclobutyl Ester] | 84 | 86 | 86 | 97 ± 5 | 75 | 2 ± 1 | 3 |  |  |  |  | 101 | 1 |  |  | 
CN1CC[C@H](OC(=O)[C@@H]2[C@H]3C[C@H]4c5[nH]c6ccccc6c5CCN4C[C@@H]3CC[C@@H]2O)C1 [Compound 4p, 17-α-Hydroxyyohimban-16-α-carboxylic Acid (S)-N-Methylpyrrolidin-3-yl Ester] | 88 | 80 | 80 | 109 ± 2 | 85 ± 2 | 10 | 1 ± 1 |  |  |  | 3820 |  |  |  |  | 
O=C(O[C@H]1CCOC1)[C@@H]1[C@H]2C[C@H]3c4[nH]c5ccccc5c4CCN3C[C@@H]2CC[C@@H]1O [Compound 4q, 17-α-Hydroxyyohimban-16-α-carboxylic Acid (S)-Tetrahydrofuran-3-yl Ester] |  |  | 112 | 118 | 102 ± 1 | 15 ± 1 | 5 ± 1 |  |  |  | 537 |  |  |  |  | 
O=C(OC1COC1)[C@@H]1[C@H]2C[C@H]3c4[nH]c5ccccc5c4CCN3C[C@@H]2CC[C@@H]1O [Compound 4r, 17-α-Hydroxyyohimban-16-α-carboxylic Acid Oxetan-3-yl Ester] |  | 102 |  |  | 89 ± 1 |  |  |  |  |  | 1940 |  |  | 94 ± 14 | 16 ± 1 | 2 ± 1
